The values that follow come from ChEMBL document CHEMBL1148404, “Novel heteroarotinoids as potential antagonists of Mycobacterium bovis BCG” (2004).

A value given as a limit tells only on which side of the number the result lay.

What all share (assay type): functional
The subject of assay [1] is Mycobacterium tuberculosis variant bovis. Description: Antibacterial activity against Mycobacterium bovis (BCG); value ranges from 20-40.
Assay [2] has the same test system. Kind of assay: Antibacterial activity against Mycobacterium bovis (BCG); value ranges from 2-4.
Assay [3] has the same test system. Kind of assay: Antibacterial activity against Mycobacterium bovis (BCG); value ranges from 5-10.
The test system is the same in assay [4]. Description: Antibacterial activity against Mycobacterium bovis (BCG); value ranges from 10-20.
For assay [5] the test system is unchanged. Description: Antibacterial activity against Mycobacterium bovis (BCG); value ranges from 0.5-1.

With `CCOC(=O)c1ccc(NC(=O)Nc2ccc3c(c2)C(C)(C)CC(C)(C)S3)cc1`, the MIC (usually the lowest concentration found to suppress growth) in assay [1] was less than 40 µg/mL.
`CCOC(=O)c1ccc(NC(=O)Nc2ccc3c(c2)C(C)(C)CC(C)(C)O3)cc1`: in assay [1], the MIC is less than 40 µg/mL.
The compound `CC1(C)CC(C)(C)c2cc(N/C(S)=N/c3ccc([N+](=O)[O-])cc3)ccc2O1` registered an MIC in assay [1] of less than 40 µg/mL.
The compound `COc1ccc2c(c1/N=C(\S)Nc1ccc([N+](=O)[O-])cc1)C(C)(C)COC2(C)C` displayed an MIC in assay [1] of less than 40 µg/mL.
The same measure, in the same setting: with `CC1=CC(C)(C)N(C)c2ccc(N/C(S)=N/c3ccc([N+](=O)[O-])cc3)cc21` the figure was less than 40 µg/mL; with `CCOC(=O)c1ccc(N/C(S)=N/c2ccc3c(c2)C(C)=CC(C)(C)N3C)cc1`, less than 40 µg/mL; with `CCOC(=O)c1ccc(N/C(S)=N/c2ccc3c(c2)C(C)(C)CC(C)(C)S3)cc1`, less than 40 µg/mL.
In assay [1], `COc1ccc2c(c1NC(=S)NC(=O)c1ccc([N+](=O)[O-])cc1)C(C)(C)COC2(C)C` had an MIC of less than 40 µg/mL.
On the same count and under the same terms, in the case of `CCOC(=O)c1ccc(NC(=O)Nc2ccc3c(c2)C(C)=CC(C)(C)N3C)cc1` it was less than 40 µg/mL; in that of `CC1(C)CC(C)(C)c2cccc(/N=C(\S)Nc3ccc([N+](=O)[O-])cc3)c2O1`, less than 40 µg/mL.
In assay [2], `COC(=O)c1ccc(C(=O)Oc2ccc3c(c2)OC(C)(C)C=C3C)cc1` gave an MIC of less than 4 µg/mL.
`CCOC(=O)c1ccc(NC(=O)Nc2cccc3c2OC(C)(C)CC3(C)C)cc1`: in assay [1], the MIC is less than 40 µg/mL.
`CCOC(=O)c1ccc(N/C(S)=N/c2cccc3c2OC(C)(C)CC3(C)C)cc1` had an MIC in assay [1] of less than 40 µg/mL.
On to `CCOC(=O)c1ccc(N/C(S)=N/c2ccc3c(c2)C(C)(C)CC(C)(C)O3)cc1`, for which the MIC in assay [3] was less than 10 µg/mL.
As for `CC1=CC(C)(C)N(C)c2ncc(/C=C/C(C)=C\C=N\N=C(/N)S)cc21`, the MIC in assay [4] is less than 20 µg/mL.
For the compound `CC(C)CCOc1ccc(NC(=S)Nc2ccc(OCCC(C)C)cc2)cc1` [TIOCARLIDE], the MIC in assay [5] was less than 1 µg/mL.
